Test results taken from publication PMC8306876, “A New N-Substituted 1H-Isoindole-1,3(2H)-Dione Derivative—Synthesis, Structure and Affinity for Cyclooxygenase Based on In Vitro Studies and Molecular Docking” (International Journal of Molecular Sciences, 2021).
Values joined by “and” are separate entries in the source; they are usually repeats but may differ in a detail not shown here. Identical values can stand only once. Marks after values point to notes of the source that are not given here.

Key:
[1] = test system: NHDF cells; assay: RNS (NO) level, Griess reagents after LPS preincubation; assay type: cell-based; conditions: 100 µM compound for 1 h after 24 h with 50 µM LPS; (SD) n = 6
Experimental: (§1) The ROS and RNS were evaluated using DCF–DA assay and Griess reagents, respectively. First, the cells were incubated with 50 µM LPS for 24 h to induce cell stress. Then, after the cells were washed, the 100 µM tested compounds were added for 1 h. Finally, the 50 µL supernatant was transferred to a new plate and added 50 µL of mixture A (1% sulfanilamide in 5% phosphoric acid) and B (0.1% N-(1-Naphthyl)ethylenediamine dihydrochloride) Griess reagents in a volume ratio 1:1 for 20 min in the dark. After that time, the absorbance was measured at 540 nm using a microplate reader. Simultaneously, the rest of the supernatant was removed from the above cell cultures, and 25 µM DCF–DA solution in MEM (without serum and phenol red) was added and left at 37 °C for 1 h and finally, determined fluorometrically with excitation at 485 nm and emission at 535 nm using a microplate reader.
(§2) The NO level was presented as concentration calculated using a standard curve (prepared in parallel with the conducted research). The ROS level was shown as ratio E/E0, where E0 is fluorescence with the positive control (cells incubated with 50 µM LPS) and E is a fluorescence with tested compound at 100 µM. Finally, the DNA damage was calculated as the ratio of cell nucleus diameter to halo diameter (a measure of DNA damage).
(§3) All statistical analysis performed were compared to the control—healthy cells (MTT assay), and positive control (incubated with 50 µM LPS) for DCF–DA, Griess, and DNA damaged. The data have a normal distribution and equality of variance, so ANOVA and post-hoc Scheffe methods were performed. The significance level was set at p < 0.05.

[2] = test system: NHDF cells; assay: DNA damage (chromatin relaxation, nucleus/halo diameter) after LPS preincubation; assay type: cell-based; conditions: ratio of cell nucleus diameter to halo diameter; 1 h with compound after 24 h with 50 µM LPS; (SD) n = 6
Experimental: However, the cells were detached at the surface after 1h of incubation with the tested compound for evaluating DNA damage. The cells were then subjected to an analogous procedure as described in Grajzer et al..
as §2, §3

[3] = molecular target: T1, COX-1 (Ovis aries, UniProt P05979); assay: Cyclooxygenase inhibition assay (Cayman kit No. 701050, COX peroxidase activity), COX-1; assay type: biochemical; conditions: incubation for 2 min; mean (SD); n = 3
T1 construct: purchased Cayman 701050
T1 sequence (P05979 25-600): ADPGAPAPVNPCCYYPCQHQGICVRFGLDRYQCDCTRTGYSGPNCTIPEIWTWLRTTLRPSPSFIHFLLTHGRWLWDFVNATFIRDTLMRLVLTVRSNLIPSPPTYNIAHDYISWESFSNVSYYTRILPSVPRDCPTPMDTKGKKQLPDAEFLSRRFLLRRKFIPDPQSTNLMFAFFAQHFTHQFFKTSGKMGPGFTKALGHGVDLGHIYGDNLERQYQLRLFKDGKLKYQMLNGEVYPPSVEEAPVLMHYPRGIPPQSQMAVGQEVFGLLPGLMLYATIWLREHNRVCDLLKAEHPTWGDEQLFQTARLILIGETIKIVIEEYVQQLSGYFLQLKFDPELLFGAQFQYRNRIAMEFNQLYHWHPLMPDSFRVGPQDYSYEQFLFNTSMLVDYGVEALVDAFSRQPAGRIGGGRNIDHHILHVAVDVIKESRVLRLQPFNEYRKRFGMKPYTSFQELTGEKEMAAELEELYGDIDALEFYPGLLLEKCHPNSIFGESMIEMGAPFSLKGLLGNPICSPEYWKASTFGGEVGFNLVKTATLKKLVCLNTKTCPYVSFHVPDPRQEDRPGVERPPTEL
Experimental: Cayman kit No. 701050 was used to evaluate the COX peroxidase activity of all compounds at a concentration of 100 µM. Absorbance was measured with a microplate reader at 590 nm. Concentrations at which 50% inhibition of enzyme activity occurred were calculated separately for COX-1 and COX-2 (IC50). Ratios of IC50 values (COX-2/COX-1) were also calculated

[4] = molecular target: T2, COX-2 (Homo sapiens, UniProt P35354); assay: Cyclooxygenase inhibition assay (Cayman kit No. 701050, COX peroxidase activity), COX-2; assay type: biochemical; conditions: for IC50: incubation for 2 min, mean (SD), n = 3; for Ratio: COX-2/COX-1: ratio of IC50 values (COX-2/COX-1)
T2 construct: purchased Cayman 701050
T2 sequence (P35354 18-604): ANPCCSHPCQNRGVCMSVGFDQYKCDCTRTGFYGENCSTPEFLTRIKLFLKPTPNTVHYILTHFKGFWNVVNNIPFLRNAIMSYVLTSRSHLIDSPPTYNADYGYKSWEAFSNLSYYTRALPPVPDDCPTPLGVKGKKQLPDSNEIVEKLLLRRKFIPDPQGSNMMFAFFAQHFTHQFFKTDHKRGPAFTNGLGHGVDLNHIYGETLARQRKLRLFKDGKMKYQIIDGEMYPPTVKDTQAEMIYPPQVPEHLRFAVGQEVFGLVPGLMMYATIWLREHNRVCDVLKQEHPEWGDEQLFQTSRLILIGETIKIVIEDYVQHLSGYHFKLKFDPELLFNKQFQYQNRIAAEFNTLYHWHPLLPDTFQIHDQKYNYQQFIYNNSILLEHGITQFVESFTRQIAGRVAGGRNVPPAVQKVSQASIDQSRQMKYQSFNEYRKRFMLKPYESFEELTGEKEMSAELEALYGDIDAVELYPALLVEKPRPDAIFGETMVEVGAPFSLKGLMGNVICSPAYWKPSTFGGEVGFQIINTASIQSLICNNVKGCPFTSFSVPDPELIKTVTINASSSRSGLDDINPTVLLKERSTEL
Experimental: Absorbance was measured with a microplate reader at 590 nm. […] Ratios of IC50 values (COX-2/COX-1) were also calculated

[5] = test system: NHDF cells; assay: Cell viability, MTT assay; assay type: cell-based; conditions: Homo sapiens, NHDF cell cultures, 24 h incubation, read-out: Cell Viability IC50 (µM) (SD)
Experimental: The NHDF cells obtained from ATCC (Manasas, VA, USA) were incubated with DMEM without phenol red supplemented with 10% fetal bovine serum (FBS), 2 mM L-glutamine, 1.25 µg/mL amphotericin B and 100 µg/mL gentamicin at 37 °C in a humidified 5% CO2/95% air atmosphere incubator. The cell culture was examined under the microscope twice a week, and cells were passaged if confluence was greater than 70% or the medium was replaced with fresh medium.
The […] were prepared by dissolving compounds in DMSO and then stored at −20 °C for up to 6 months. Before the biological experimental, the working solution was dissolved in the medium in the concentration range of 10, 50, and 100 µM.
To evaluated cell viability, an MTT assay was performed. After incubation of cells with the tested compounds for 24 h, the supernatant was removed, and 1 mg/mL MTT solution was applied for 2 h. Next, the formazan was dissolved with propanol for 30 min, and absorbance was measured at 570 nm using a microplate reader. The results are presented as IC50.

[6] = test system: NHDF cells; assay: ROS level, DCF-DA assay after LPS preincubation; assay type: cell-based; conditions: 100 µM compound after LPS preincubation
Experimental: as §1, §2, §3

Row | Structure (SMILES) | melting point | NO Level (pg/mL) [1] | DNA Damage [2] | IC50 [3] | IC50 [4] | Ratio: COX-2/COX-1 [4] | IC50 [5] | scavenging of ROS compared to control [6]
1 | O=C1c2ccccc2C(=O)N1CN1CCN(c2ccccc2)CC1 [A, N-[(4-phenyl-1-piperazinyl)methyl]-1H-isoindole-1,3(2H)-dione] | 160 to 161 °C | 6.4 (0.14) pg/mL | 15.2 (0.04) * | 238 µM | 107 µM | 0.45 | – | –
2 | COc1ccccc1N1CCN(CN2C(=O)c3ccccc3C2=O)CC1 [B, N-[(4-(2-methoxyphenyl)-1-piperazinyl)methyl]-1H-isoindole-1,3(2H)-dione] | 134 to 135 °C | – | 19.6 (0.09) * | 71 µM | 68.5 µM | 1.10 and 0.96 | – | –
3 | O=C1c2ccccc2C(=O)N1CN1CCN(c2cccc(C(F)(F)F)c2)CC1 [Compound C] | 147 to 148 °C | 8.2 (0.03) * pg/mL | 23.2 (0.07) * | 104 µM | 70.3 µM | 0.67 | – | –
4 | O=C1c2ccccc2C(=O)N1CN1CCN(C(c2ccccc2)c2ccccc2)CC1 [Compound D, N-[(4-(diphenyl-methyl)-1-piperazinyl)methyl]-1H-isoindole-1,3(2H)-dione] | 206 to 207 °C | 7.4 (0.12) pg/mL | 17.3 (0.04) * | 66.2 µM | 72.8 µM | 1.10 | 90.3 µM | –
5 | COc1cccc(N2CCN(C(=O)CN3C(=O)c4ccccc4C3=O)CC2)c1 [Compound H, 2-{2-oxo-2-[4-(3-methoxy)-phenyl-1-piperazinyl]ethyl}-1H-isoindole-1,3(2H)-dione] | 155 to 156 °C | – | 17.1 (0.04) * | 176 µM | 43.8 µM | 0.25 | 94.1 µM | approximately 29.0%
6 | COc1ccc(N2CCN(C(=O)CN3C(=O)c4ccccc4C3=O)CC2)cc1 [Compound I, 2-{2-oxo-2-[4-(4-methoxy)-phenyl-1-piperazinyl]ethyl}-1H-isoindole-1,3(2H)-dione] | 204 to 207 °C | – | 19.2 (0.08) * | 94.4 µM | 46.2 µM | 0.49 | 93.3 µM | approximately 29.0%
7 | O=C(CN1C(=O)c2ccccc2C1=O)N1CCN(c2ccccc2)CC1 [E, 2-[2-oxo-2-(4-phenyl-1-piperazinyl)ethyl]-1H-isoindole-1,3(2H)-dione] | 180 °C | 5.3 (0.07) * pg/mL | 18.4 (0.07) * | 76.7 µM | 53.4 µM | 0.70 | – | –
8 | O=C(CN1C(=O)c2ccccc2C1=O)N1CCN(c2cccc(C(F)(F)F)c2)CC1 [F, 2-{2-oxo-2-[4-(3-trifluoromethyl)-phenyl-1-piperazinyl]ethyl}-1H-isoindole-1,3(2H)-dione] | 206 to 208 °C | 9.1 (0.07) pg/mL | 20.1 (0.03) * | 171 µM | 47.6 µM | 0.28 | – | –
9 | COc1ccccc1N1CCN(C(=O)CN2C(=O)c3ccccc3C2=O)CC1 [G, 2-{2-oxo-2-[4-(2-methoxy)-phenyl-1-piperazinyl]ethyl}-1H-isoindole-1,3(2H)-dione] | 152 to 154 °C | – | 18.7 (0.07) * | 101 µM | 65.8 µM | – | 96.8 µM | approximately 29.0%
